Assay results taken from ChEMBL document CHEMBL4808230, “Neuroprotective effects of 2-heptyl-3-hydroxy-4-quinolone in HT22 mouse hippocampal neuronal cells” (2021).
Activity calls are given as the source filed them. No cut-off for these calls is given here.

Key:
[1] = tested on: HT-22; test: Neuroprotective activity against glutamate-induced cytotoxicity in mouse HT-22 cells assessed as increase in cell viability at 0.6 uM in presence of glutamate by calcein-AM dye/propidium iodide staining based microscopic analysis; assay type: functional
[2] = tested on: HT-22; test: Neuroprotective activity against glutamate-induced cytotoxicity in mouse HT-22 cells assessed as increase in cell viability at 1.85 to 5.5 uM in presence of glutamate by calcein-AM dye/propidium iodide staining based microscopic analysis; assay type: functional; settings: dose 1.85-5.5 µM
[3] = tested on: HT-22; test: Inhibition of glutamate-induced oxidative stress in mouse HT-22 cells assessed as reduction in intracellular ROS accumulation at 0.2 to 1.8 uM in presence of glutamate by FACS analysis; assay type: functional, cell-based; settings: dose 0.2-1.8 µM
[4] = tested on: HT-22; test: Inhibition of glutamate-induced oxidative stress in mouse HT-22 cells assessed as reduction in intracellular ROS accumulation at 0.2 to 3.6 uM in presence of glutamate by DCF-DA staining based fluorescence microscopic analysis; assay type: functional, cell-based; settings: dose 0.2-3.6 µM
[5] = tested on: HT-22; test: Inhibition of glutamate-induced Ca2+ influx in mouse HT-22 cells assessed as reduction in intracellular Ca2+ concentration in presence of glutamate by Fluo3-AM staining based fluorescence microscopic method; assay type: functional, cell-based; settings: dose 0.6-1.8 µM
[6] = biological target: c-Jun N-terminal kinase (Mus musculus) (UniProt Q91Y86+Q9WTU6+Q61831); test: Inhibition of glutamate-induced JNK activation in mouse HT-22 cells assessed as reduction in phosphorylated JNK protein level at 1 to 10 uM in presence of glutamate by Western blot analysis; assay type: cell-based; settings: dose 1-10 µM
Chain of c-Jun N-terminal kinase (Mus musculus) (Q61831 whole entry, looked up): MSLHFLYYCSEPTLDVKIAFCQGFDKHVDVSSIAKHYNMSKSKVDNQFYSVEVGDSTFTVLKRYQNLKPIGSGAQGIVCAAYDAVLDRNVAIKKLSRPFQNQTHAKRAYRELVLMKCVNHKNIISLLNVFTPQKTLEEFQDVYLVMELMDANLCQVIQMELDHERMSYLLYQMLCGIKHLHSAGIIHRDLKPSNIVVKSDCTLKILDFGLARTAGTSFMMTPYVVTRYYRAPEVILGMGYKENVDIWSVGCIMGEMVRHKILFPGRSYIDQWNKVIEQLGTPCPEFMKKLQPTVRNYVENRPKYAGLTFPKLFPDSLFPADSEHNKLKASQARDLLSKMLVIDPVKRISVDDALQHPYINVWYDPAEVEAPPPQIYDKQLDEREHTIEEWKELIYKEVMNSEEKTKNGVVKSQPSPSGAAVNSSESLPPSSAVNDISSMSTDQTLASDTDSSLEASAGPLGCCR
Chain of c-Jun N-terminal kinase (Mus musculus) (Q91Y86 whole entry, looked up): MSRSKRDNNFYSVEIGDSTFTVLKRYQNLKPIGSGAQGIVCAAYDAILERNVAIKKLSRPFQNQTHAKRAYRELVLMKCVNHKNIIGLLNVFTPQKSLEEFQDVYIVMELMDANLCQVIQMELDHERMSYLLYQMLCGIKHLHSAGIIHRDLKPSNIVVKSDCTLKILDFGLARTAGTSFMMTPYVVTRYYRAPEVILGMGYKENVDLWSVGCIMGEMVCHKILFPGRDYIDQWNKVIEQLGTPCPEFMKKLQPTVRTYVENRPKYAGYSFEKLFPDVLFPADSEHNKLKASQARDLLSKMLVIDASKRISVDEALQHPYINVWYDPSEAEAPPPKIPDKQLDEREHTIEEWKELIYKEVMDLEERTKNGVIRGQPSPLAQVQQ
Chain of c-Jun N-terminal kinase (Mus musculus) (Q9WTU6 whole entry, looked up): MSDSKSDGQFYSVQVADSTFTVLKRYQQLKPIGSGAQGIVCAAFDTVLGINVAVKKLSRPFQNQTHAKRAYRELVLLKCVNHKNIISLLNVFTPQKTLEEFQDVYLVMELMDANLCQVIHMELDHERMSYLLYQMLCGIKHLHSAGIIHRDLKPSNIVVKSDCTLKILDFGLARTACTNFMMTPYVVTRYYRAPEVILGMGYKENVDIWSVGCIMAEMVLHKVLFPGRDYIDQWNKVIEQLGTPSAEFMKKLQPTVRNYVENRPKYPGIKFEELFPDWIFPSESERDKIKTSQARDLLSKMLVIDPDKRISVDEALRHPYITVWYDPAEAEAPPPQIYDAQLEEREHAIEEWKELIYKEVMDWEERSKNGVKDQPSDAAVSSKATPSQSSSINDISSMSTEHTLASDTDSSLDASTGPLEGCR

[7] = tested on: HT-22; test: Inhibition of glutamate-induced ERK activation in mouse HT-22 cells assessed as reduction in phosphorylated ERK protein level at 1 to 10 uM in presence of glutamate by Western blot analysis; assay type: cell-based; settings: dose 1-10 µM
[8] = biological target: MAP kinase p38 (Mus musculus) (UniProt P47811+O08911+Q9WUI1+Q9Z1B7); test: Inhibition of glutamate-induced p38 MAPK activation in mouse HT-22 cells assessed as reduction in phosphorylated p38 MAPK protein level at 1 to 10 uM in presence of glutamate by Western blot analysis; assay type: cell-based; settings: dose 1-10 µM
[9] = tested on: HT-22; test: Inhibition of glutamate-induced apoptosis in mouse HT-22 cells assessed as reduction in Bax protein level at 1 to 10 uM incubated for 10 hrs in presence of glutamate by Western blot analysis; assay type: functional, cell-based; settings: dose 1-10 µM
[10] = tested on: HT-22; test: Inhibition of glutamate-induced apoptosis in mouse HT-22 cells assessed as increase in Bcl2 protein level at 1 to 10 uM incubated for 10 hrs in presence of glutamate by Western blot analysis; assay type: functional, cell-based; settings: dose 1-10 µM
[11] = tested on: HT-22; test: Inhibition of glutamate-induced AIF nuclear translocation in mouse HT-22 cells assessed as decrease in translocation of AIF from mitochondria to nucleus at 1 to 10 uM in presence of glutamate by Western blot analysis; assay type: functional, cell-based; settings: dose 1-10 µM
[12] = tested on: HT-22; test: Inhibition of glutamate-induced apoptosis in mouse HT-22 cells assessed as early apoptotic cells at 0.2 uM pretreated with glutamate for 2 hrs followed by incubation with compound for 8 hrs by Annexin-V FITC and propidium iodide staining based flow cytometric analysis (reference value: 71.33%); assay type: functional; parameters: scale not given: the % may be the effect or the level left
[13] = tested on: HT-22; test: Inhibition of glutamate-induced apoptosis in mouse HT-22 cells assessed as late apoptotic cells at 0.2 uM pretreated with glutamate for 2 hrs followed by incubation with compound for 8 hrs by Annexin-V FITC and propidium iodide staining based flow cytometric analysis (reference value: 6.49%); assay type: functional; parameters: scale not given: the % may be the effect or the level left
[14] = tested on: HT-22; test: Inhibition of glutamate-induced apoptosis in mouse HT-22 cells assessed as necrotic cells at 0.2 uM pretreated with glutamate for 2 hrs followed by incubation with compound for 8 hrs by Annexin-V FITC and propidium iodide staining based flow cytometric analysis (reference value: 0.79%); assay type: functional; parameters: scale not given: the % may be the effect or the level left
[15] = tested on: HT-22; test: Inhibition of glutamate-induced apoptosis in mouse HT-22 cells assessed as early apoptotic cells at 1.85 uM pretreated with glutamate for 2 hrs followed by incubation with compound for 8 hrs by Annexin-V FITC and propidium iodide staining based flow cytometric analysis (reference value: 71.33%); assay type: functional; parameters: scale not given: the % may be the effect or the level left
[16] = tested on: HT-22; test: Inhibition of glutamate-induced apoptosis in mouse HT-22 cells assessed as late apoptotic cells at 1.85 uM pretreated with glutamate for 2 hrs followed by incubation with compound for 8 hrs by Annexin-V FITC and propidium iodide staining based flow cytometric analysis (reference value: 6.49%); assay type: functional; parameters: scale not given: the % may be the effect or the level left
[17] = tested on: HT-22; test: Inhibition of glutamate-induced apoptosis in mouse HT-22 cells assessed as necrotic cells at 1.85 uM pretreated with glutamate for 2 hrs followed by incubation with compound for 8 hrs by Annexin-V FITC and propidium iodide staining based flow cytometric analysis (reference value: 0.79%); assay type: functional; parameters: scale not given: the % may be the effect or the level left
[18] = tested on: HT-22; test: Inhibition of glutamate-induced apoptosis in mouse HT-22 cells assessed as viable cells at 1.85 uM pretreated with glutamate for 2 hrs followed by incubation with compound for 8 hrs by Annexin-V FITC and propidium iodide staining based flow cytometric analysis (reference value: 21.39%); assay type: functional; settings: read-out: Activity
[19] = tested on: HT-22; test: Inhibition of glutamate-induced apoptosis in mouse HT-22 cells assessed as viable cells at 0.2 uM pretreated with glutamate for 2 hrs followed by incubation with compound for 8 hrs by Annexin-V FITC and propidium iodide staining based flow cytometric analysis (reference value: 21.39%); assay type: functional; settings: read-out: Activity
[20] = tested on: HT-22; test: Neuroprotective activity against glutamate-induced cytotoxicity in mouse HT-22 cells assessed as reduction in cell death and morphological changes at 0.6 to 1.8 uM incubated for 12 hrs in presence of glutamate by phase contrast microscopic analysis; assay type: functional, cell-based; settings: dose 0.6-1.8 µM
[21] = tested on: HT-22; test: Neuroprotective activity against glutamate-induced cytotoxicity in mouse HT-22 cells assessed as reduction in cell death pretreated with glutamate followed by incubation with compound for 6 hrs and measured at 16 hrs post-glutamate treatment; assay type: functional, cell-based
[22] = tested on: HT-22; test: Neuroprotective activity against glutamate-induced cytotoxicity in mouse HT-22 cells assessed as reduction in cell death pretreated with glutamate followed by incubation with compound for 8 hrs and measured at 16 hrs post-glutamate treatment; assay type: functional, cell-based
[23] = tested on: RGC-5; test: Cytoprotective activity against glutamate-induced cytotoxicity in rat RGC-5 cells assessed as reduction in cell death; assay type: functional, cell-based
[24] = Antioxidant activity assessed as DPPH radical scavenging activity; assay type: functional
[25] = Inhibition of glutamate-induced Ca2+ influx in mouse HT-22 cells assessed as reduction in intracellular Ca2+ concentration at 0.6 to 1.8 uM in presence of glutamate by Fluo3-AM staining based fluorescence microscopic method relative to control; assay type: functional; settings: dose 0.6-1.8 µM
[26] = tested on: HT-22; test: Inhibition of glutamate-induced AIF nuclear translocation in mouse HT-22 cells assessed as decrease in translocation of AIF from mitochondria to nucleus in presence of glutamate by immunostaining analysis; assay type: functional, cell-based

With `CCCCCCCc1[nH]c2ccccc2c(=O)c1O` the Activity [1] was “Active”, the Activity [2] was “inactive” and the inhibition [3] was “Active”. The inhibition [4] was “Active”, the inhibition [5] was “Dose-Dependent Effect” and the inhibition [6] was “Active”. The inhibition [7] was “Active”, the inhibition [8] was “Active” and the inhibition [9] was “Active”. The inhibition [10] was “Active”, the inhibition [11] was “Active” and the Activity [12] was 55.26%. It also gave an Activity [13] of 5.51%, an Activity [14] of 1.74% and an Activity [15] of 0.44%. The Activity [16] was 1.06%, the Activity [17] was 0.44% and the viability at 1.85 µM [18] was 98.1%. The viability at 0.2 µM [19] was 37.5%, the Activity [20] was “Active” and the Activity [21] was “Active”. The Activity [22] was “inactive”, the Activity [23] was “Active” and the Activity [24] was “Dose-Dependent Effect”. For the same compound, the “fold change (FC)” value [25] was 0.98 and the inhibition [26] was “Active”.
